US12649750B2, “Macrocyclic compounds, compositions, and methods of using thereof” (Sionna Therapeutics Inc., priority 2022, dated 2026)

Experiments:
NBD1 = molecular target: T1, NBD1 (Homo sapiens, UniProt P13569); test: Aggregation analysis using differential static light scattering (DSLS), thermal stability of NBD1 (ΔTagg); format: binding; conditions: ΔTagg versus DMSO control, NBD1 0.2 mg/ml
T1 construct: Purified recombinant NBD1 was produced using previously described methods; made in house
How it was run: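 Stabilisation is measured as the shift in aggregation onset of recombinant NBD1 (0.2 mg/ml, 2 mM ATP, 5 mM MgCl2, pH7.6) exposed to compound. Images are taken every 0.5° C. while heating at 1° C. per minute, and the inflection-point Tagg is corrected by the DMSO mean.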

CFTR = molecular target: T2, CFTR (Homo sapiens, UniProt P13569, DEL508-508); test: TECC24 AUC fold over DMSO @10 μM, CFTR-mediated transepithelial chloride transport in CF-HBE cells; format: cell-based; conditions: test agent AUC divided by DMSO vehicle AUC, primary CF-HBE cells, ΔF508 homozygous donor, 48 hours incubation
T2 construct: Primary human bronchial epithelial cells from a ΔF508 homozygous CF donor; host or cells: primary human bronchial epithelial cells (CF-HBE), ΔF508 homozygous donor
How it was run: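 ΔF508-homozygous primary bronchial epithelial cells incubated 48 h at 36.5° C with compound (10 μM) in IL-13-containing medium, then TECC24 current-clamp recording in pH 7.4 Hepes saline with benzamil 10 μM, forskolin 10 μM, then CFTR inhibitor-172 20 μM. Equivalent Cl− current AUC between forskolin and inhibitor, expressed as fold over DMSO.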

T2 sequence (P13569 with tags, fused parts or gaps DEL508-508): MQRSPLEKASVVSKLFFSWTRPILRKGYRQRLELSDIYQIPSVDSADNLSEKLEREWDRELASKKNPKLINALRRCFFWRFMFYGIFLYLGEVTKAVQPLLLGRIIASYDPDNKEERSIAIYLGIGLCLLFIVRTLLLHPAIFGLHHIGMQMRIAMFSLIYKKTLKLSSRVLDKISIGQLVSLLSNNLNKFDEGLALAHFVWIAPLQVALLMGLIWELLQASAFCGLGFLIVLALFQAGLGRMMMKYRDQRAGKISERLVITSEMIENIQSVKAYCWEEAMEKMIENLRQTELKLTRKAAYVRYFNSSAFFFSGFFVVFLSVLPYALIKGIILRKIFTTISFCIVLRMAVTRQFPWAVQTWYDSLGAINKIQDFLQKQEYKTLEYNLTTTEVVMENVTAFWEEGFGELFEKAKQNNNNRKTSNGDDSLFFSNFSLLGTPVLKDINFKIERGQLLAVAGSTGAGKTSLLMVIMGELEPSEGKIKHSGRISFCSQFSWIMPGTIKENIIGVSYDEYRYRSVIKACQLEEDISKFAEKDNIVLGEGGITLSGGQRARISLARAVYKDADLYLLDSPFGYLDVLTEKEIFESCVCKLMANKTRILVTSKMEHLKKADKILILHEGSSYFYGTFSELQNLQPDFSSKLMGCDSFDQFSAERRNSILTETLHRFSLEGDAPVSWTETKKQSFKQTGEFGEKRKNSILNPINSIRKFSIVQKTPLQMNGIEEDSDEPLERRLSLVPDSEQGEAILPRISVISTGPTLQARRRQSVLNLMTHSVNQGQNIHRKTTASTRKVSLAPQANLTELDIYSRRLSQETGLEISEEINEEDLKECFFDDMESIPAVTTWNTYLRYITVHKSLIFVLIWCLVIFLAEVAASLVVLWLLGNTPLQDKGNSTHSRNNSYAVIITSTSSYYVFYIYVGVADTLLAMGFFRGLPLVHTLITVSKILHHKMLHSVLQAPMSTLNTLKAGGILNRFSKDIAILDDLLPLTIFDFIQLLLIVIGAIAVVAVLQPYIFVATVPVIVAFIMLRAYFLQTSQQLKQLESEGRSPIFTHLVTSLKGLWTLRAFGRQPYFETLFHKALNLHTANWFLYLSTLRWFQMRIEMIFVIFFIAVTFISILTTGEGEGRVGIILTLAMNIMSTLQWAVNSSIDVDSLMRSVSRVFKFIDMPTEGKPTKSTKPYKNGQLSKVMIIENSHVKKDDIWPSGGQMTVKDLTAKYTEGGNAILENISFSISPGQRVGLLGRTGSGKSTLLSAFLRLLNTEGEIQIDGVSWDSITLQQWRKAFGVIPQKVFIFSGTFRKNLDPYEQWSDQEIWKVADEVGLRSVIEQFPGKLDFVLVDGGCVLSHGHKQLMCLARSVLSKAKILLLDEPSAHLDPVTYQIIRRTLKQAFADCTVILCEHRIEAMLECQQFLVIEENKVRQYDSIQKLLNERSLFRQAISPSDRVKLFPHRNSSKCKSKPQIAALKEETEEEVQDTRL
T1 sequence (P13569 423-646 limits assumed): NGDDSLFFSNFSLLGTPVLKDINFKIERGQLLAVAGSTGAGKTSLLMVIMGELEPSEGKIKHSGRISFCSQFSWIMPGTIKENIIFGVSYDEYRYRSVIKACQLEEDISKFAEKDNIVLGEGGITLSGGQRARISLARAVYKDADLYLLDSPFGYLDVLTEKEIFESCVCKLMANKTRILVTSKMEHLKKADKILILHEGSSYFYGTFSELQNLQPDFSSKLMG

Cn1nc2nc1-c1cc(ccn1)[S+]([O-])c1c(F)cc3[nH]ccc3c1CCS(=O)(=O)CC(C)(C)CCC[C@]2(C)c1cccc(CCO)c1 (single isomer, unassigned) [Compound 250]
DSLS 3D (100 μM ΔT) (NBD1): C (a value greater than 10 °C and less than or equal to 25 °C is marked “C”)
TECC (AUC, 10 μM) (CFTR): C (a value between 20 and 80 is marked “C”)

C[C@@H](Cc1cccc([C@@]2(C)CCCC(C)(C)CS(=O)(=O)CCc3c(c(F)cc4[nH]ccc34)C(O)c3ccnc(c3)-c3nc2nn3C)c1)C(=O)O (single isomer, unassigned) [Compound 255A]
DSLS 3D (100 μM ΔT) (NBD1): B (a value above 5 °C and less than or equal to 10 °C is marked “B”)
TECC (AUC, 10 μM) (CFTR): A (a TECC value less than 12 is marked “A”)

C[C@@H](Cc1cccc([C@@]2(C)CCCC(C)(C)CS(=O)(=O)CCc3c(c(F)cc4[nH]ccc34)C(O)c3ccnc(c3)-c3nc2nn3C)c1)C(=O)O (single isomer, unassigned) [Compound 255B]
DSLS 3D (100 μM ΔT) (NBD1): C (a value greater than 10 °C and less than or equal to 25 °C is marked “C”)
TECC (AUC, 10 μM) (CFTR): C (a value between 20 and 80 is marked “C”)

Cn1nc2nc1-c1cc(ccn1)[S+]([O-])c1c(F)cc3[nH]ccc3c1CCS(=O)(=O)CC(C)(C)CCC[C@]2(C)c1cccc(CCC(=O)O)c1F (single isomer, unassigned) [Compound 260A]
DSLS 3D (100 μM ΔT) (NBD1): C (a value greater than 10 °C and less than or equal to 25 °C is marked “C”)
TECC (AUC, 10 μM) (CFTR): C (a value between 20 and 80 is marked “C”)

Cn1nc2nc1-c1cc(ccn1)[S+]([O-])c1c(F)cc3[nH]ccc3c1CCS(=O)(=O)CC(C)(C)CCC[C@]2(C)c1cccc(CCC(=O)O)c1F (single isomer, unassigned) [Compound 260B]
DSLS 3D (100 μM ΔT) (NBD1): B (a value above 5 °C and less than or equal to 10 °C is marked “B”)
TECC (AUC, 10 μM) (CFTR): A (a TECC value less than 12 is marked “A”)

C[C@@H](Cc1cccc(C2(C)CCCCCS(=O)(=O)CCc3c(c(F)cc4[nH]ccc34)Oc3ccnc(c3)-c3nc2nn3C)c1)C(=O)O (single isomer, unassigned) [Compound 261A]
DSLS 3D (100 μM ΔT) (NBD1): C (a value greater than 10 °C and less than or equal to 25 °C is marked “C”)
TECC (AUC, 10 μM) (CFTR): C (a value between 20 and 80 is marked “C”)

C[C@@H](Cc1cccc(C2(C)CCCCCS(=O)(=O)CCc3c(c(F)cc4[nH]ccc34)Oc3ccnc(c3)-c3nc2nn3C)c1)C(=O)O (single isomer, unassigned) [Compound 261B]
DSLS 3D (100 μM ΔT) (NBD1): A (an ΔTagg value less than or equal to 5 °C is marked “A”)
TECC (AUC, 10 μM) (CFTR): A (a TECC value less than 12 is marked “A”)

C[C@@H](O)Cc1cccc([C@@]2(C)CCCC(C)(C)CS(=O)(=O)CCc3c(c(F)cc4[nH]ccc34)[S+]([O-])c3ccc(F)c(c3)-c3nc2nn3C)c1 (single isomer, unassigned) [Compound 264]
DSLS 3D (100 μM ΔT) (NBD1): C (a value greater than 10 °C and less than or equal to 25 °C is marked “C”)
TECC (AUC, 10 μM) (CFTR): C (a value between 20 and 80 is marked “C”)

C[C@@H](Cc1cccc(C2(C)CCCC(C)(C)CS(=O)(=O)CCc3c(c(F)cc4[nH]ccc34)Oc3ccnc(c3)-c3nc2nn3C)n1)C(=O)O (single isomer, unassigned) [Compound 266A]
DSLS 3D (100 μM ΔT) (NBD1): A (an ΔTagg value less than or equal to 5 °C is marked “A”)
TECC (AUC, 10 μM) (CFTR): A (a TECC value less than 12 is marked “A”)

C[C@@H](Cc1cccc(C2(C)CCCC(C)(C)CS(=O)(=O)CCc3c(c(F)cc4[nH]ccc34)Oc3ccnc(c3)-c3nc2nn3C)n1)C(=O)O (single isomer, unassigned) [Compound 266B]
DSLS 3D (100 μM ΔT) (NBD1): C (a value greater than 10 °C and less than or equal to 25 °C is marked “C”)
TECC (AUC, 10 μM) (CFTR): C (a value between 20 and 80 is marked “C”)

C[C@H](Cc1cccc([C@@]2(C)CCCC(C)(C)CS(=O)(=O)CCc3c(c(F)c(F)c4[nH]ccc34)[S+]([O-])c3ccnc(c3)-c3nc2nn3C)c1)C(=O)O (single isomer, unassigned) [Compound 269]
DSLS 3D (100 μM ΔT) (NBD1): C (a value greater than 10 °C and less than or equal to 25 °C is marked “C”)
TECC (AUC, 10 μM) (CFTR): C (a value between 20 and 80 is marked “C”)
